{
  "source": "ChEMBL document CHEMBL1201862",
  "about": "“PubChem BioAssay data set” (2004)",
  "key": {"[1]": {"biological_target": "Metabotropic glutamate receptor 3 (Rattus norvegicus, UniProt P31422)", "sequence (P31422 whole entry)": "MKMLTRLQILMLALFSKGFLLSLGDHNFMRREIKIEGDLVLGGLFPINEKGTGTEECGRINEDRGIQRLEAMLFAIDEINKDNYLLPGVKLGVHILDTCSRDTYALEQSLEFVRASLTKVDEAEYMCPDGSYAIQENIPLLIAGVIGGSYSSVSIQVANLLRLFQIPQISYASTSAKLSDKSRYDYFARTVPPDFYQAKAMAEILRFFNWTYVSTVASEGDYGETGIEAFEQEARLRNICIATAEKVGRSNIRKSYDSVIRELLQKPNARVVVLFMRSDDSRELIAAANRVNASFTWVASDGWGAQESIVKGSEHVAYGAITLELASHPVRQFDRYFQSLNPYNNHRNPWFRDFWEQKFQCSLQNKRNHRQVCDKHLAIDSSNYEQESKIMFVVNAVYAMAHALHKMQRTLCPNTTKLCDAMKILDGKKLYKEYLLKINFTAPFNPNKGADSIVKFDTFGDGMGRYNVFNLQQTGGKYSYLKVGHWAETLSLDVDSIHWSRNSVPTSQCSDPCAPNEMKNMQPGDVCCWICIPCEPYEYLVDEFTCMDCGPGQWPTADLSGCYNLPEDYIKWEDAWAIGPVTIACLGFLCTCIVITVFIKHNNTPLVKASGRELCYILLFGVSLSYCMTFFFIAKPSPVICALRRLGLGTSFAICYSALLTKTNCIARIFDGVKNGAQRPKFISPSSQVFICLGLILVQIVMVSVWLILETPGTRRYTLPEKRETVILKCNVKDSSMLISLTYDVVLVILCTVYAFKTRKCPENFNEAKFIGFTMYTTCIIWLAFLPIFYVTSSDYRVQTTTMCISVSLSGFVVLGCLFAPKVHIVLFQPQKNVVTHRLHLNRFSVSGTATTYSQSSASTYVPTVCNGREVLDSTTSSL", "experiment": "inhibition of rat mGlu3 glutamate signaling – HEK/GIRK cells, thallium flux, dose response (AID 651839)", "format": "functional"}, "[2]": {"experiment": "blockers of HIV-1 envelope-mediated cell-cell fusion – cherry-pick, dose response (AID 652057)", "format": "functional, cell-based"}, "[3]": {"experiment": "viability loss in CEM21 cells – cell-based, plate reader, dry powder, cytotoxicity control, dose response (AID 687026)", "format": "functional"}, "[4]": {"experiment": "blockers of HIV-1 ZM109 envelope-driven cell-cell fusion – HeLa effector, CEM target cells, luciferase, cherry-pick, dose response (AID 652058)", "format": "functional, cell-based"}, "[5]": {"experiment": "inhibition of Env-driven cell fusion – HIV entry, plate reader, dry powder, dose response (AID 687023)", "format": "functional, cell-based"}, "[6]": {"experiment": "OVCAR8 cell viability loss – plate reader, dry powder samples, PAX8 project, dose response (AID 743197)", "format": "functional, cell-based", "details": "OVCAR-8"}, "Paired box protein Pax-8": {"biological_target": "Paired box protein Pax-8 (Homo sapiens, UniProt Q06710)", "sequence (Q06710 whole entry)": "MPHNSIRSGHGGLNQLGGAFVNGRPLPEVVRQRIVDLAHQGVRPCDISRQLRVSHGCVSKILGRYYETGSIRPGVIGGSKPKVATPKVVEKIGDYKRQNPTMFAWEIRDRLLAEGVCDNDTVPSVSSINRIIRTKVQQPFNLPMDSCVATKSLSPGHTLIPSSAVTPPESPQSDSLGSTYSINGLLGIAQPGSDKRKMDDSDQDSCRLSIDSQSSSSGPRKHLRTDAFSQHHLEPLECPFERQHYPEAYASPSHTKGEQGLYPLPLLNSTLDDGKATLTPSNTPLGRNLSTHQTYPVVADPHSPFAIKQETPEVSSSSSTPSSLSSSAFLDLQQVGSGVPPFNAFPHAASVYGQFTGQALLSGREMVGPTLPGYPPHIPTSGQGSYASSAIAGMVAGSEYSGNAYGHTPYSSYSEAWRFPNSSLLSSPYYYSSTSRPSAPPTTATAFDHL", "experiment": "PAX8 transcriptional activity inhibition in RMG-I – RMG-I cells, luciferase, cherry-pick, dose response (AID 687027);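 further: luciferase reporter driven by Pax8 target thyroperoxidase promoter measured by SteadyGlo luminescence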", "format": "functional, cell-based"}, "[7]": {"experiment": "IGROV1 cell killing – plate reader, dry powder samples, PAX8 inhibitor project, dose response (AID 743043)", "format": "functional, cell-based", "details": "IGROV-1"}, "[8]": {"experiment": "toxicity toward immortalized ovarian surface epithelium – cell-based, plate reader, dry powder samples, cytotoxicity control for PAX8 inhibitor project, dose response (AID 743045)", "format": "functional"}, "[9]": {"experiment": "toxicity toward HepG2 liver cells – cell-based, plate reader, cherry-pick, antagonist series, cytotoxicity control, dose response (AID 743416)", "format": "functional"}, "[10]": {"experiment": "blockers of bursicon-stimulated LGR2 cAMP reporter – cell-based, HEK293, CRE-luciferase reporter, cherry pick, set 2, dose response (AID 743343);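 further: transfected cells were stimulated with diluted bursicon conditioned medium after compound addition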", "format": "functional"}, "[11]": {"experiment": "A549 cell cytotoxicity, dose response, cytotoxicity control, plate reader, cherry-pick, antagonist series (AID 743412)", "format": "functional, cell-based"}, "[12]": {"experiment": "viability loss in HEK293 cells – cell-based, plate reader, cherry-picked samples, cytotoxicity control, dose response (AID 743446)", "format": "functional"}, "[13]": {"experiment": "blockade of melanocortin 4 receptor signaling – cell-based, plate reader, cherry pick, counter-screen for LGR2 antagonist project, dose response (AID 743444);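 further: transfected HEK 293 cells stimulated with alpha-MSH peptide; potency of inhibitors of the alpha-MSH evoked signal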", "format": "functional"}, "[14]": {"experiment": "viability loss in MITF-independent A375 cells – cell-based, CellTiter-Glo luminescence, dry powder, set 2, counter-screen for MITF inhibitor project, dose response (AID 624489);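 further: actives are compounds lowering A375 viability meaning general cytotoxicity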", "format": "functional", "details": "A-375"}, "[15]": {"experiment": "cytotoxicity in MITF-independent A375 cells – cell-based, CellTiter-Glo luminescence, dry powder, set 4, counter-screen for MITF inhibitor project, dose response (AID 624364);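 further: A375 melanoma cells are MITF independent so this is a counter screen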", "format": "functional", "details": "A-375"}, "[16]": {"experiment": "OVCAR-3 cell viability loss – plate reader, dry powder samples, PAX8 inhibitor project, dose response (AID 743044)", "format": "functional, cell-based"}, "[17]": {"experiment": "A2780 cell killing – plate reader, dry powder samples, cytotoxicity control, dose response (AID 743046)", "format": "functional, cell-based"}},
  "note": "Calls of active or inactive are those of the source.",
  "data": [
    {"smiles": "O=C(c1ccc2cc(-c3cccc(OCc4ccccc4)c3)ccc2c1)N1CCCC(CO)C1", "note": "(stereo unspecified)", "values": [
      {"measurement": "IC50", "setting": "[1]", "result": "1.08 µM (inactive)"}
    ]},
    {"smiles": "C[C@H]1CN([C@@H](C)CO)C(=O)c2ccccc2-c2ccccc2CO[C@H]1CN(C)S(=O)(=O)c1ccccc1C#N", "values": [
      {"measurement": "AC50", "setting": "[2]", "result": "0.838 µM (active)"},
      {"measurement": "AC50", "setting": "[3]", "result": "> 70 µM (inactive)"},
      {"measurement": "AC50", "setting": "[4]", "result": "3.49 µM (active)"},
      {"measurement": "AC50", "setting": "[5]", "result": "47 µM (active)"}
    ]},
    {"smiles": "O=C(C[C@@H]1CC[C@@H]2[C@H](COC[C@H](O)CN2S(=O)(=O)c2ccccc2Cl)O1)N1CCC(Cc2ccccc2)CC1", "values": [
      {"measurement": "AC50", "setting": "[6]", "result": "44.9 µM (active)"},
      {"measurement": "AC50", "setting": "Paired box protein Pax-8", "result": "13.3 µM (active)"},
      {"measurement": "AC50", "setting": "[7]", "result": "37.6 µM (active)"},
      {"measurement": "AC50", "setting": "[8]", "result": "31.5 µM (active)"}
    ]},
    {"smiles": "CCCCOc1ccc(-c2cnc3ccccc3n2)cc1", "values": [
      {"measurement": "AC50", "setting": "[9]", "result": "> 52 µM (inactive)"},
      {"measurement": "AC50", "setting": "[10]", "result": "4.56 µM (active)"},
      {"measurement": "AC50", "setting": "[11]", "result": "> 52 µM (inactive)"},
      {"measurement": "AC50", "setting": "[12]", "result": "> 52 µM (inactive)"},
      {"measurement": "AC50", "setting": "[13]", "result": "6.65 µM (active)"}
    ]},
    {"smiles": "COc1ccc(C2=C(NC(=O)c3ccc(Cl)cc3)C(=O)c3ccccc3C2=O)cc1", "values": [
      {"measurement": "AC50", "setting": "[14]", "result": "18.2 µM (active)"},
      {"measurement": "AC50", "setting": "[15]", "result": "35.3 µM (active)"}
    ]},
    {"smiles": "O=C1C(Nc2ccccc2)=C(NS(=O)(=O)c2ccccc2[N+](=O)[O-])C(=O)c2ccccc21", "values": [
      {"measurement": "AC50", "setting": "[14]", "result": "> 70 µM (inactive)"},
      {"measurement": "AC50", "setting": "[15]", "result": "> 70 µM (inactive)"}
    ]},
    {"smiles": "CS(=O)(=O)N1CC(=O)N2[C@H](CO)[C@H](c3ccc(C#CCC4CCCC4)cc3)[C@H]2C1", "values": [
      {"measurement": "AC50", "setting": "[16]", "result": "23 µM (active)"},
      {"measurement": "AC50", "setting": "Paired box protein Pax-8", "result": "5.98 µM (active)"},
      {"measurement": "AC50", "setting": "[17]", "result": "33.1 µM (active)"}
    ]}
  ]
}
